Columns and labels:
HCT116 cells = test: Tumor cell proliferation (Alamar Blue), HCT116; format: cell-based; details: Homo sapiens, HCT-116, 72 h
Method: (§1) Human tumor cells (e.g., HCT116 or MDA-MB-231 cells), are seeded in a Costar 96-well plate at 3.0×10^3 cells/well and grown in 150 μl of RPMI complete media (Invitrogen Corporation, Grand Island, N.Y.) containing 10% fetal bovine serum (Hyclone, Logan, Utah) at 37° C. for 16 h in an incubator with 5% CO2. To each well, 50 μl of additional growth media containing 40 μM to 18 nM concentrations of compound with 0.4% DMSO is added. Cells are grown for another 72 h at 37° C. with 5% CO2. 20 μl of Alamar Blue (Trek Diagnostic Systems, Inc., Cleveland, Ohio) reagent is added to each well and incubated for 3 h at 37° C. Plates are read in a SpectraMax Gemini (Molecular Devices, Calif.) with 544 nm excitation and 590 nm emission wavelength. IC50 values are determined by linear regression analysis of log drug concentration versus percent inhibition.

MDA-MB-231 cells = test: Tumor cell proliferation (Alamar Blue), MDA-MB-231; format: cell-based; details: Homo sapiens, MDA-MB-231, 72 h
Method: as §1

Row | SMILES | IC50 (HCT116 cells; bounds given in μM) [µM] | IC50 (MDA-MB-231 cells; bounds given in μM) [µM] | IC50 (MDA-MB-231 cells) [µM] | IC50 (HCT116 cells) [µM]
1 | CCOC(=O)c1cn2ncnc(N)c2c1-c1ccc(NC(=O)Nc2cc(C(F)(F)F)ccn2)c(F)c1 [Example 242, ethyl 4-amino-5-{3-fluoro-4-[({[4-(trifluoromethyl)pyridin-2-yl]amino}carbonyl)amino]phenyl}pyrrolo[2,1-f][1,2,4]triazine-6-carboxylate] | 1.5 to 5 | 1.5 to 5 | – | –
2 | COCCOCc1cn2ncnc(N)c2c1-c1ccc(NC(=O)Nc2cc(C(C)(C)C)nn2-c2ccc(F)cc2)cc1 [Example 248, N-(4-{4-amino-6-[(2-methoxyethoxy)methyl]pyrrolo[2,1-f][1,2,4]triazin-5-yl}phenyl)-N′-[3-tert-butyl-1-(4-fluorophenyl)-1H-pyrazol-5-yl]urea] | 1.5 to 5 | < 1.5 | > 0.5 | –
3 | COCc1cn2ncnc(N)c2c1-c1ccc(NC(=O)Nc2cc(C(F)(F)F)ccc2F)c(F)c1 [Example 254, N-{4-[4-amino-6-(methoxymethyl)pyrrolo[2,1-f][1,2,4]triazin-5-yl]-2-fluorophenyl}-N′-[2-fluoro-5-(trifluoromethyl)phenyl]urea] | 1.5 to 5 | 1.5 to 5 | – | –
4 | N#CCc1cn2ncnc(N)c2c1-c1ccc(NC(=O)Nc2cc(C(F)(F)F)ccn2)c(F)c1 [Example 255] | 1.5 to 5 | < 1.5 | > 0.5 | –
5 | N#Cc1cn2ncnc(N)c2c1-c1ccc(NC(=O)Nc2cc(C(F)(F)F)ccc2F)c(F)c1 [Example 256, N-[4-(4-amino-6-cyanopyrrolo[2,1-f][1,2,4]triazin-5-yl)-2-fluorophenyl]-N′-[2-fluoro-5-(trifluoromethyl)phenyl]urea] | < 1.5 | < 1.5 | > 0.5 | > 0.5
6 | Nc1ncnn2cc(-c3nc(CN4CCOCC4)co3)c(-c3ccc(NC(=O)Nc4cc(C(F)(F)F)ccc4F)cc3)c12 [Example 257, N-(4-{4-amino-6-[4-(morpholin-4-ylmethyl)-1,3-oxazol-2-yl]pyrrolo[2,1-f][1,2,4]triazin-5-yl}phenyl)-N′-[2-fluoro-5-(trifluoromethyl)phenyl]urea] | < 1.5 | < 1.5 | > 0.5 | > 0.5

Reference: patent US7563791B2, “Pyrrolotriazine derivatives useful for treating hyper-proliferative disorders and diseases associated with angiogenesis” (Bayer Pharmaceuticals Corporation, priority 2004, dated 2009)
